Data from ChEMBL document CHEMBL1149262, “Monoamine transporter binding, locomotor activity, and drug discrimination properties of 3-(4-substituted-phenyl)tropane-2-carboxylic acid methyl ester isomers” (J Med Chem, 2004).
The source made the active and inactive calls. The rule behind the calls is not given here.

Tests used:
Mus musculus [1] = test: Locomotor activity in CD1 mouse assessed as stimulation at 0.3 mg/kg, ip after 1 hr relative to control; assay type: functional; settings: route intraperitoneal
Mus musculus [2] = test: Locomotor activity in CD1 mouse assessed as stimulation at 0.3 mg/kg, ip after 2 hrs relative to control; assay type: functional; settings: route intraperitoneal
Mus musculus [3] = test: Locomotor activity in CD1 mouse assessed as stimulation at 0.3 mg/kg, ip after 3 hrs relative to control; assay type: functional; settings: route intraperitoneal
Mus musculus [4] = test: Locomotor activity in CD1 mouse assessed as stimulation at 0.3 mg/kg, ip after 4 hrs relative to control; assay type: functional; settings: route intraperitoneal
Mus musculus [5] = test: Locomotor activity in CD1 mouse assessed as stimulation at 1 mg/kg, ip after 1 hr relative to control; assay type: functional; settings: route intraperitoneal
Mus musculus [6] = test: Locomotor activity in CD1 mouse assessed as stimulation at 1 mg/kg, ip after 2 hrs relative to control; assay type: functional; settings: route intraperitoneal
Mus musculus [7] = test: Locomotor activity in CD1 mouse assessed as stimulation at 1 mg/kg, ip after 3 hrs relative to control; assay type: functional; settings: route intraperitoneal
Mus musculus [8] = test: Locomotor activity in CD1 mouse assessed as stimulation at 1 mg/kg, ip after 4 hrs relative to control; assay type: functional; settings: route intraperitoneal
Rattus norvegicus [9] = test: Cocaine discrimination in ip dosed CD Albino rat; assay type: functional
Rattus norvegicus [10] = test: Drug discrimination effect in CD Albino rat assessed as percent of rat choosing cocaine lever at 0.17 mg/kg, ip; assay type: functional; settings: route intraperitoneal
Rattus norvegicus [11] = test: Drug discrimination effect in CD Albino rat assessed as percent of rat choosing cocaine lever at 0.3 mg/kg, ip; assay type: functional; settings: route intraperitoneal
Rattus norvegicus [12] = test: Drug discrimination effect in CD Albino rat assessed as percent of rat choosing cocaine lever at 0.56 mg/kg, ip; assay type: functional; settings: route intraperitoneal
Rattus norvegicus [13] = test: Drug discrimination effect in CD Albino rat assessed as percent of rat choosing cocaine lever at 1 mg/kg, ip; assay type: functional; settings: route intraperitoneal
Mus musculus [14] = test: Activity in CD1 mouse assessed as hyperactivity at 1 mg/kg, ip after 4 hrs; assay type: functional, organism-based; parameters: dose 1 mg/kg
Mus musculus [15] = test: Activity in CD1 mouse assessed as stereotypy at 1 mg/kg, ip after 4 hrs; assay type: functional, organism-based; parameters: dose 1 mg/kg
Mus musculus [16] = test: Activity in CD1 mouse assessed as hyperactivity at 10 mg/kg, ip after 4 hrs; assay type: functional, organism-based; parameters: dose 10 mg/kg
Mus musculus [17] = test: Activity in CD1 mouse assessed as stereotypy at 10 mg/kg, ip after 4 hrs; assay type: functional, organism-based; parameters: dose 10 mg/kg
Mus musculus [18] = test: Activity in CD1 mouse assessed as circling at 10 mg/kg, ip after 4 hrs; assay type: functional, organism-based; parameters: dose 10 mg/kg
Mus musculus [19] = test: Activity in CD1 mouse assessed as stereotypy at 100 mg/kg, ip after 4 hrs; assay type: functional, organism-based; parameters: dose 100 mg/kg
Mus musculus [20] = test: Activity in CD1 mouse assessed as straub tail at 100 mg/kg, ip after 4 hrs; assay type: functional, organism-based; parameters: dose 100 mg/kg
Mus musculus [21] = test: Activity in CD1 mouse assessed as convulsions at 100 mg/kg, ip after 4 hrs; assay type: functional, organism-based; parameters: dose 100 mg/kg
[22] = target: Sodium-dependent noradrenaline transporter (Homo sapiens, UniProt P23975); test: Displacement of [3H]nisoxetine from NET
Mus musculus [23] = test: Locomotor activity in ip dosed CD1 mouse in peak hour; assay type: functional
Mus musculus [24] = test: Locomotor activity in CD1 mouse assessed as stimulation at 3 mg/kg, ip after 1 hr relative to control; assay type: functional; settings: route intraperitoneal
Mus musculus [25] = test: Locomotor activity in CD1 mouse assessed as stimulation at 3 mg/kg, ip after 2 hrs relative to control; assay type: functional; settings: route intraperitoneal
Mus musculus [26] = test: Locomotor activity in CD1 mouse assessed as stimulation at 3 mg/kg, ip after 3 hrs relative to control; assay type: functional; settings: route intraperitoneal
Mus musculus [27] = test: Locomotor activity in CD1 mouse assessed as stimulation at 3 mg/kg, ip after 4 hrs relative to control; assay type: functional; settings: route intraperitoneal
Mus musculus [28] = test: Locomotor activity in CD1 mouse assessed as stimulation at 10 mg/kg, ip after 1 hr relative to control; assay type: functional; settings: route intraperitoneal
Mus musculus [29] = test: Locomotor activity in CD1 mouse assessed as stimulation at 10 mg/kg, ip after 2 hrs relative to control; assay type: functional; settings: route intraperitoneal
Mus musculus [30] = test: Locomotor activity in CD1 mouse assessed as stimulation at 10 mg/kg, ip after 3 hrs relative to control; assay type: functional; settings: route intraperitoneal
Mus musculus [31] = test: Locomotor activity in CD1 mouse assessed as stimulation at 10 mg/kg, ip after 4 hrs relative to control; assay type: functional; settings: route intraperitoneal
Rattus norvegicus [32] = test: Drug discrimination effect in CD Albino rat assessed as percent of rat choosing cocaine lever at 1.7 mg/kg, ip; assay type: functional; settings: route intraperitoneal
Rattus norvegicus [33] = test: Drug discrimination effect in CD Albino rat assessed as percent of rat choosing cocaine lever at 3 mg/kg, ip; assay type: functional; settings: route intraperitoneal
Rattus norvegicus [34] = test: Drug discrimination effect in CD Albino rat assessed as percent of rat choosing cocaine lever at 5.6 mg/kg, ip; assay type: functional; settings: route intraperitoneal
Rattus norvegicus [35] = test: Drug discrimination effect in CD Albino rat assessed as percent of rat choosing cocaine lever at 10 mg/kg, ip; assay type: functional; settings: route intraperitoneal
Mus musculus [36] = test: Activity in CD1 mouse assessed as hyperactivity at 100 mg/kg, ip after 4 hrs; assay type: functional, organism-based; parameters: dose 100 mg/kg
Mus musculus [37] = test: Locomotor activity in CD1 mouse assessed as stimulation at 30 mg/kg, ip after 1 hr relative to control; assay type: functional; settings: route intraperitoneal
Mus musculus [38] = test: Locomotor activity in CD1 mouse assessed as stimulation at 30 mg/kg, ip after 2 hrs relative to control; assay type: functional; settings: route intraperitoneal
Mus musculus [39] = test: Locomotor activity in CD1 mouse assessed as stimulation at 30 mg/kg, ip after 3 hrs relative to control; assay type: functional; settings: route intraperitoneal
Mus musculus [40] = test: Locomotor activity in CD1 mouse assessed as stimulation at 30 mg/kg, ip after 4 hrs relative to control; assay type: functional; settings: route intraperitoneal
Mus musculus [41] = test: Locomotor activity in CD1 mouse assessed as stimulation at 100 mg/kg, ip after 1 hr relative to control; assay type: functional; settings: route intraperitoneal
Mus musculus [42] = test: Locomotor activity in CD1 mouse assessed as stimulation at 100 mg/kg, ip after 2 hrs relative to control; assay type: functional; settings: route intraperitoneal
Mus musculus [43] = test: Locomotor activity in CD1 mouse assessed as stimulation at 100 mg/kg, ip after 3 hrs relative to control; assay type: functional; settings: route intraperitoneal
Mus musculus [44] = test: Locomotor activity in CD1 mouse assessed as stimulation at 100 mg/kg, ip after 4 hrs relative to control; assay type: functional; settings: route intraperitoneal
Mus musculus [45] = test: Activity in CD1 mouse assessed as slight or intermittent hyperactivity at 10 mg/kg, ip after 4 hrs; assay type: functional, organism-based; parameters: dose 10 mg/kg
Mus musculus [46] = test: Activity in CD1 mouse assessed as circling at 100 mg/kg, ip after 4 hrs; assay type: functional, organism-based; parameters: dose 100 mg/kg
[47] = target: Sodium-dependent dopamine transporter (Homo sapiens, UniProt Q01959); test: Displacement of [3H]WIN-35428 from DAT
Sequence of Sodium-dependent dopamine transporter (Q01959 whole entry): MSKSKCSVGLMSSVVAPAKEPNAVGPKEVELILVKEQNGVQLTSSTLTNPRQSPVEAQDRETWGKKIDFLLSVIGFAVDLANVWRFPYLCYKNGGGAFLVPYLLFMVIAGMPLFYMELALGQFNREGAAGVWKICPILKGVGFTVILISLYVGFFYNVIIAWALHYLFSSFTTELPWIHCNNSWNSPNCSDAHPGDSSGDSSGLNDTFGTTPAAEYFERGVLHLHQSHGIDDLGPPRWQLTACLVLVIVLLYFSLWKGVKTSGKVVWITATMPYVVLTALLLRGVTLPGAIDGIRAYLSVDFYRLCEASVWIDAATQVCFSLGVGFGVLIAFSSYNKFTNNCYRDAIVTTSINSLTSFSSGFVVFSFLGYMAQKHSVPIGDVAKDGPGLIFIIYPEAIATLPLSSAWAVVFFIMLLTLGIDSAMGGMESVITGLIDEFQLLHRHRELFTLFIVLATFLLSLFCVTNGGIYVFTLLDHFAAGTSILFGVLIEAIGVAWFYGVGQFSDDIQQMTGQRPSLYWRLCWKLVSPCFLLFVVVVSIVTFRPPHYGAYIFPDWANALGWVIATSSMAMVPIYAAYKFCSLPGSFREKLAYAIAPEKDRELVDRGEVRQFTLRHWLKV

Sequence of Sodium-dependent noradrenaline transporter (P23975 whole entry): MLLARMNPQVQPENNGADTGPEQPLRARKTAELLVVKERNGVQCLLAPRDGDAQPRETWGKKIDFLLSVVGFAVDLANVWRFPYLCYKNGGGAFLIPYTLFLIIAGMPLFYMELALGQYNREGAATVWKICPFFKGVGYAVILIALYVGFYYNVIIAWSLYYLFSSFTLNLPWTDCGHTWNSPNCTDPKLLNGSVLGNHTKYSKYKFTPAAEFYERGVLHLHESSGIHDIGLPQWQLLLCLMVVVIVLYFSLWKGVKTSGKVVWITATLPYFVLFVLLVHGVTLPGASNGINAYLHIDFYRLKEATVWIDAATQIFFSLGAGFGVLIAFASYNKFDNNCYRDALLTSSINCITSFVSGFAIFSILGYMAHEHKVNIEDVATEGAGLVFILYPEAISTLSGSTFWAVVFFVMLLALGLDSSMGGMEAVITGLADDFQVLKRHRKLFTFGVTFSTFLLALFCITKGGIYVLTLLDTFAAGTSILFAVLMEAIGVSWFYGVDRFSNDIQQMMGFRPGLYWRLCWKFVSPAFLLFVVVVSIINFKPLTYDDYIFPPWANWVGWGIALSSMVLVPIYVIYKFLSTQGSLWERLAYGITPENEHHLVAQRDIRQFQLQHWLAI

| SMILES | ED50 (Rattus norvegicus [9]) [mg/kg] | Activity (Rattus norvegicus [13]) [%] | Activity (Mus musculus [16]) | Activity (Mus musculus [17]) | Activity (Mus musculus [19]) | Activity (Mus musculus [21]) | IC50 [22] [nM] | Ki [22] [nM] | ED50 (Mus musculus [23]) [mg/kg] | Activity (Mus musculus [24]) [%] | Activity (Mus musculus [25]) [%] | Activity (Mus musculus [26]) [%] | Activity (Mus musculus [27]) [%] | Activity (Mus musculus [28]) [%] | Activity (Mus musculus [29]) [%] | Activity (Mus musculus [30]) [%] | Activity (Mus musculus [31]) [%] | Activity (Rattus norvegicus [33]) [%] | Activity (Rattus norvegicus [34]) [%] | Activity (Rattus norvegicus [35]) [%] | other results |
| --- | --- | --- | --- | --- | --- | --- | --- | --- | --- | --- | --- | --- | --- | --- | --- | --- | --- | --- | --- | --- | --- |
| COC(=O)[C@@H]1C2CC[C@H](C[C@@H]1c1ccccc1)N2C | 0.34 | 100 | Active | Active | Active | Active | 920 | 550 | 1.2 | 660 | 506 | 276 | 199 | 904 | 1080 | 964 | 190 | – | – | – | Activity (Mus musculus [1]): 44%; Activity (Mus musculus [2]): 56%; Activity (Mus musculus [3]): 24%; Activity (Mus musculus [4]): 62%; Activity (Mus musculus [5]): 253%; Activity (Mus musculus [6]): 192%; Activity (Mus musculus [7]): 102%; Activity (Mus musculus [8]): 151%; Activity (Rattus norvegicus [10]): 14%; Activity (Rattus norvegicus [11]): 36%; Activity (Rattus norvegicus [12]): 88%; Activity (Mus musculus [14]): Active; Activity (Mus musculus [15]): Active; Activity (Mus musculus [18]): Active; Activity (Mus musculus [20]): Active |
| COC(=O)[C@H]1[C@@H](OC(=O)c2ccccc2)C[C@@H]2CC[C@H]1N2C [COCAINE] | 2.44 | 21 | Active | – | Active | Active | – | – | 10 | 27 | 14 | -17 | -9 | 127 | 24 | 10 | -21 | 59 | 82 | 97 | Activity (Rattus norvegicus [32]): 32%; Activity (Mus musculus [36]): Active; Activity (Mus musculus [37]): 341%; Activity (Mus musculus [38]): 100%; Activity (Mus musculus [39]): -10%; Activity (Mus musculus [40]): 16%; Activity (Mus musculus [41]): 269%; Activity (Mus musculus [42]): 391%; Activity (Mus musculus [43]): 255%; Activity (Mus musculus [44]): 91% |
| COC(=O)[C@@H]1C2CCC(C[C@H]1c1ccccc1)N2C (stereo partly drawn) | 3.19 | – | – | Active | Active | – | 541 | 271 | 21.8 | -30 | -39 | -35 | 12 | 43 | 6 | -13 | 6 | 13 | 100 | 100 | Activity (Mus musculus [45]): Active; Activity (Mus musculus [36]): Active; Activity (Mus musculus [46]): Active; IC50 [47]: 101 nM; Activity (Mus musculus [37]): 161%; Activity (Mus musculus [38]): 17%; Activity (Mus musculus [39]): 47%; Activity (Mus musculus [40]): 97%; Activity (Mus musculus [41]): 338%; Activity (Mus musculus [42]): 191%; Activity (Mus musculus [43]): 234%; Activity (Mus musculus [44]): 390% |
